Earlier results on 2 compounds are cited in patent US7442682B2, “Transepithelial delivery of peptides with incretin hormone activities” (Nitto Denko Corporation, priority 2004, dated 2008).

For one data set, the system named is β-cells. The note with it: insulinotropic effect; read-out: half-maximal effective concentration on β-cells.
The next data set deals with fasting blood glucose. The following applies: type 2 diabetes patients, pump infusion for 6 weeks, mainly within first week.
For data set [1] the following is noted: in vivo.

Turning to “GLP-1: glucagon-like peptide-1, human incretin hormone”, the EC50 with β-cells is 0.01 nM. In the data set with fasting blood glucose, the “lowering of fasting blood glucose” value was 4 to 5 mM.
As for `CCCCCCCCCCCCCCCC(=O)N[C@@H](CCC(=O)NCCCC[C@H](NC(=O)[C@H](C)NC(=O)[C@H](C)NC(=O)[C@H](CCC(N)=O)NC(=O)CNC(=O)[C@H](CCC(=O)O)NC(=O)[C@H](CC(C)C)NC(=O)[C@H](Cc1ccc(O)cc1)NC(=O)[C@H](CO)NC(=O)[C@H](CO)NC(=O)[C@@H](NC(=O)[C@H](CC(=O)O)NC(=O)[C@H](CO)NC(=O)[C@@H](NC(=O)[C@H](Cc1ccccc1)NC(=O)[C@@H](NC(=O)CNC(=O)[C@H](CCC(=O)O)NC(=O)[C@H](C)NC(=O)[C@@H](N)Cc1cnc[nH]1)[C@@H](C)O)[C@@H](C)O)C(C)C)C(=O)N[C@@H](CCC(=O)O)C(=O)N[C@@H](Cc1ccccc1)C(=O)N[C@H](C(=O)N[C@@H](C)C(=O)N[C@@H](Cc1c[nH]c2ccccc12)C(=O)N[C@@H](CC(C)C)C(=O)N[C@H](C(=O)N[C@@H](CCCNC(=N)N)C(=O)NCC(=O)N[C@@H](CCCNC(=N)N)C(=O)NCC(=O)O)C(C)C)[C@@H](C)CC)C(=O)O` [Liraglutide], the “half-life relative to exendin-4” value in data set [1] was “more than 10 fold”.
